Experimental data from patent US9849099B2, “Antimicrobial compounds, compositions and methods of use thereof” (WISCONSIN ALUMNI RESEARCH FOUNDATION, priority 2014, dated 2017).
Converted amounts (≈) assume the structure as drawn. “Also recorded” adds a separate entry of the source. Like-named read-outs stand apart in the source and are kept apart here.

Legend:
Type in all cases: cell-based
[1] = test system: E. coli BW25113 ΔtolC; assay: MIC micro-dilution; details: Escherichia coli, LB media, 37° C., 16-18 hours
Method: (§1) Luria-Bertani (LB) media (10 g/L tryptone, 10 g/L NaCl, 5 g/L yeast extract, pH 7.0) was used to grow all bacterial strains, except Streptococcus pyogenes. Streptococcus pyogenes was grown in Mueller-Hinton broth containing 5% (v/v) sheep blood. All bacterial cultures were grown at 37° C. All the E. coli strains were grown while shaking at 200 rpm, while clinical pathogens were incubated without shaking.
(§2) The MIC of all the strains was determined in LB media except Streptococcus pyogenes, which was grown in Mueller-Hinton media containing 5% (v/v) sheep blood. The micro-dilution method was utilized in 96-well clear flat-bottom plates (100 μL/well) according to the CLSI guidelines. All strains were grown at 37° C. for 16-18 hours in presence of various concentrations of compound. The MIC was determined by a visual inspection and experiments were performed in triplicate.

[2] = test system: E. coli BW25113; assay: MIC micro-dilution; details: Escherichia coli, LB media, 37° C., 16-18 hours
Method: as §1, §2

[3] = test system: Enterobacter aerogenes; assay: MIC micro-dilution; details: Klebsiella aerogenes
Method: as §1, §2

[4] = test system: Vibrio cholerae; assay: MIC micro-dilution
Method: as §1, §2

[5] = test system: Edwardsiella tarda; assay: MIC micro-dilution
Method: as §1, §2

[6] = test system: Staphylococcus aureus; assay: MIC micro-dilution
Method: as §1, §2

[7] = test system: Acinetobacter baumannii; assay: MIC micro-dilution
Method: as §1, §2

[8] = test system: Pseudomonas aeruginosa; assay: MIC micro-dilution
Method: as §1, §2

[9] = test system: Klebsiella pneumoniae; assay: MIC micro-dilution
Method: as §1, §2

[10] = test system: Shigella boydii; assay: MIC micro-dilution; details: LB media, 37° C., 16-18 hours, read-out: MIC
Method: as §1, §2

[11] = test system: Salmonella typhimurium; assay: MIC micro-dilution; details: Salmonella enterica
Method: as §1, §2

[12] = test system: Morganella morganii; assay: MIC micro-dilution
Method: as §1, §2

[13] = test system: broad panel of human pathogens; assay: MIC against the panel of pathogens; details: panel of pathogens
Method: as §1, §2

[14] = test system: Bacillus subtilis 168; assay: MIC micro-dilution
Method: as §1, §2

[15] = Enterobacter aerogenes, LB media, 37° C., 16-18 hours, read-out: MIC
[16] = LB media, 37° C., 16-18 hours, read-out: MIC
[17] = Salmonella typhimurium, LB media, 37° C., 16-18 hours, read-out: MIC
[18] = Bacillus subtilis 168, LB media, 37° C., 16-18 hours, read-out: MIC

NCCc1c[nH]c2ccc(O)cc12 [Compound 2]
MIC [1]: > 51 µg/mL | MIC ([2]; BW25113, E. coli BW25113): > 51 µg/mL

COc1ccc2[nH]cc(CCN)c2c1 [Compound 3]
MIC [1]: > 56 µg/mL | MIC ([2]; BW25113, E. coli BW25113): > 56 µg/mL

NCCc1c[nH]c2ccccc12 [Compound 4]
MIC [1]: > 61 µg/mL | MIC ([2]; BW25113, E. coli BW25113): > 61 µg/mL

Cc1[nH]c2ccc(O)cc2c1CCN [Compound 5]
MIC [1]: > 61 µg/mL | MIC ([2]; BW25113, E. coli BW25113): > 61 µg/mL

COc1ccc2c(CCN)c[nH]c2c1 [Compound 6]
MIC [1]: > 61 µg/mL | MIC ([2]; BW25113, E. coli BW25113): > 61 µg/mL

CCCCOc1ccc2[nH]cc(CCN)c2c1 [Compound 7]
MIC [3]: > 74 µg/mL | MIC [1]: > 74 µg/mL | MIC [4]: > 74 µg/mL | MIC [5]: > 74 µg/mL | MIC [6]: > 74 µg/mL | MIC [7]: > 74 µg/mL | MIC ([2]; BW25113, E. coli BW25113): > 74 µg/mL | MIC [8]: > 74 µg/mL | MIC [9]: > 74 µg/mL | MIC [10]: > 74 µg/mL | MIC ([11]; TYPHIMURIUM): > 74 µg/mL | MIC [12]: > 74 µg/mL

CCCCCCOc1ccc2[nH]cc(CCN)c2c1 [Compound 8]
MIC [3]: 42 µg/mL (≈ 161 µM) | MIC [1]: 42 µg/mL (≈ 161 µM) | MIC [4]: 42 µg/mL (≈ 161 µM) | MIC [5]: 42 µg/mL (≈ 161 µM) | MIC [6]: 42 µg/mL (≈ 161 µM) | MIC [7]: 42 µg/mL (≈ 161 µM) | MIC ([2]; BW25113, E. coli BW25113): 42 µg/mL (≈ 161 µM) | MIC [8]: > 83 µg/mL | MIC [9]: 42 µg/mL (≈ 161 µM) | MIC [10]: 42 µg/mL (≈ 161 µM) | MIC ([11]; TYPHIMURIUM): 42 µg/mL (≈ 161 µM) | MIC [12]: > 83 µg/mL

CCCCCCCCCCOc1ccc2[nH]cc(CCN)c2c1 [Compound 9]
MICs compared with Compound 1 [13]: either the same or 2-fold different from 1 | MIC [3, 15]: 13 µg/mL (≈ 41.1 µM) | MIC [1]: 3.2 µg/mL (≈ 10.1 µM) | MIC [4]: 6.3 µg/mL (≈ 19.9 µM) | MIC [5, 16]: 25 µg/mL (≈ 79 µM) | MIC [6, 16]: 6.3 µg/mL (≈ 19.9 µM) | MIC [7, 16]: 6.3 µg/mL (≈ 19.9 µM) | MIC ([2]; E. coli BW25113, read-out: MIC): 6.3 µg/mL (≈ 19.9 µM) | MIC [8, 16]: > 101 µg/mL | MIC [9, 16]: 6.3 µg/mL (≈ 19.9 µM) | MIC [10]: 3.2 µg/mL (≈ 10.1 µM) | MIC [11, 17]: 6.3 µg/mL (≈ 19.9 µM) | MIC [12, 16]: > 101 µg/mL

CC(C)CCCC(C)CCOc1ccc2[nH]cc(CCN)c2c1 (centres unmarked) [Compound 10]
MICs compared with Compound 1 [13]: either the same or 2× different from Compound 1; also recorded: either the same or 2-fold different from 1 | MIC [3, 15]: 13 µg/mL (≈ 41.1 µM) | MIC [1]: 3.2 µg/mL (≈ 10.1 µM) | MIC [4]: 6.3 µg/mL (≈ 19.9 µM) | MIC [5, 16]: 25 µg/mL (≈ 79 µM) | MIC [6, 16]: 6.3 µg/mL (≈ 19.9 µM) | MIC [7, 16]: 13 µg/mL (≈ 41.1 µM) | MIC ([2]; E. coli BW25113, read-out: MIC): 13 µg/mL (≈ 41.1 µM) | MIC [8, 16]: 25 µg/mL (≈ 79 µM) | MIC [9, 16]: 13 µg/mL (≈ 41.1 µM) | MIC [10]: 6.3 µg/mL (≈ 19.9 µM) | MIC [11, 17]: 6.3 µg/mL (≈ 19.9 µM) | MIC [12, 16]: > 101 µg/mL

NCCc1c[nH]c2ccc(OCCCCCCCc3ccccc3)cc12 [Compound 11]
MICs compared with Compound 1 [13]: either the same or 2× different from Compound 1; also recorded: either the same or 2-fold different from 1 | MIC [3, 15]: 14 µg/mL (≈ 39.9 µM) | MIC [1]: 1.8 µg/mL (≈ 5.14 µM) | MIC [4]: 7 µg/mL (≈ 20 µM) | MIC [5, 16]: 28 µg/mL (≈ 79.9 µM) | MIC [6, 16]: 3.5 µg/mL (≈ 9.99 µM) | MIC [7, 16]: 7 µg/mL (≈ 20 µM) | MIC ([2]; E. coli BW25113, read-out: MIC): 14 µg/mL (≈ 39.9 µM) | MIC [8, 16]: 56 µg/mL (≈ 160 µM) | MIC [9, 16]: 7 µg/mL (≈ 20 µM) | MIC [10]: 7 µg/mL (≈ 20 µM) | MIC [11, 17]: 7 µg/mL (≈ 20 µM) | MIC [12, 16]: > 112 µg/mL

CCCCCCCCCCCCCCCOc1ccc2[nH]cc(CCN)c2c1 [Compound 12]
MIC [3]: > 124 µg/mL | MIC [1]: > 124 µg/mL | MIC [4]: > 124 µg/mL | MIC [5]: > 124 µg/mL | MIC [6]: > 124 µg/mL | MIC [7]: > 124 µg/mL | MIC ([2]; BW25113, E. coli BW25113): > 124 µg/mL | MIC [8]: > 124 µg/mL | MIC [9]: > 124 µg/mL | MIC [10]: > 124 µg/mL | MIC ([11]; TYPHIMURIUM): > 124 µg/mL | MIC [12]: > 124 µg/mL

CCCCCCCCCOc1ccc2[nH]cc(CCNC(=O)OC(C)C)c2c1 [Compound 13]
MIC [3, 15]: > 130 µg/mL | MIC [1]: > 130 µg/mL | MIC [14, 18]: > 130 µg/mL | MIC [4]: > 130 µg/mL | MIC [5, 16]: > 130 µg/mL | MIC [6, 16]: > 130 µg/mL | MIC [7, 16]: > 130 µg/mL | MIC ([2]; E. coli BW25113, read-out: MIC): > 130 µg/mL | MIC [8, 16]: > 130 µg/mL | MIC [9, 16]: > 130 µg/mL | MIC [10]: > 130 µg/mL | MIC [11, 17]: > 130 µg/mL | MIC [12, 16]: > 130 µg/mL

CCCCCCCCCOc1ccc2[nH]ccc2c1 [Compound 14]
MIC [3, 15]: > 83 µg/mL | MIC [1]: > 83 µg/mL | MIC [14, 18]: > 83 µg/mL | MIC [4]: > 83 µg/mL | MIC [5, 16]: > 83 µg/mL | MIC [6, 16]: > 83 µg/mL | MIC [7, 16]: > 83 µg/mL | MIC ([2]; E. coli BW25113, read-out: MIC): > 83 µg/mL | MIC [8, 16]: > 83 µg/mL | MIC [9, 16]: > 83 µg/mL | MIC [10]: > 83 µg/mL | MIC [11, 17]: > 83 µg/mL | MIC [12, 16]: > 83 µg/mL

CCCCCCCCCOc1ccc2[nH]cc(CC[N+](C)(C)C)c2c1 [Compound 15]
MIC [3]: 52 µg/mL | MIC [1]: 6.5 µg/mL | MIC ([14]; Bacillus subtilis, 168): 52 µg/mL | MIC [4]: > 104 µg/mL | MIC [5]: 26 µg/mL | MIC [6]: 6.5 µg/mL | MIC [7]: 52 µg/mL | MIC ([2]; BW25113, E. coli BW25113): 52 µg/mL | MIC [8]: 52 µg/mL | MIC [9]: 26 µg/mL | MIC [10]: 26 µg/mL | MIC ([11]; TYPHIMURIUM): 26 µg/mL | MIC [12]: > 104 µg/mL

CCCCCCCCCOc1cccc(CCN)c1 [Compound 16]
MIC [3]: 5.3 µg/mL (≈ 20.1 µM) | MIC [1]: 2.6 µg/mL (≈ 9.87 µM) | MIC ([14]; Bacillus subtilis, 168): 0.66 µg/mL (≈ 2.51 µM) | MIC [4]: 5.3 µg/mL (≈ 20.1 µM) | MIC [5]: 5.3 µg/mL (≈ 20.1 µM) | MIC [6]: 5.3 µg/mL (≈ 20.1 µM) | MIC [7]: 5.3 µg/mL (≈ 20.1 µM) | MIC ([2]; BW25113, E. coli BW25113): 5.3 µg/mL (≈ 20.1 µM) | MIC [8]: 21 µg/mL (≈ 79.7 µM) | MIC [9]: 5.3 µg/mL (≈ 20.1 µM) | MIC [10]: 5.3 µg/mL (≈ 20.1 µM) | MIC ([11]; TYPHIMURIUM): 5.3 µg/mL (≈ 20.1 µM) | MIC [12]: 11 µg/mL (≈ 41.8 µM)

CCCCCCCCCOc1ccc(CCN)cc1 [Compound 17]
MIC [1]: 1.3 µg/mL (≈ 4.93 µM) | MIC ([14]; Bacillus subtilis, 168): 0.66 µg/mL (≈ 2.51 µM) | MIC ([2]; BW25113, E. coli BW25113): 5.3 µg/mL (≈ 20.1 µM)

CCCCCCCCCOc1cccc(CN)c1 [Compound 18]
MIC [1]: 4.7 µg/mL (≈ 18.8 µM) | MIC [14, 18]: 4.7 µg/mL (≈ 18.8 µM) | MIC ([2]; E. coli BW25113, read-out: MIC): 9.4 µg/mL (≈ 37.7 µM)

CCCCCCCCCOc1cccc(N)c1 [Compound 19]
MIC [1]: 10 µg/mL (≈ 42.5 µM) | MIC [14, 18]: 40 µg/mL (≈ 170 µM) | MIC ([2]; E. coli BW25113, read-out: MIC): > 40 µg/mL
